± gives the expanded uncertainty stated by the source.
Assay: Boiling temperature at pressure P
Conditions: 101.3 kPa; Liquid; Ebulliometric method (Recirculating still)

Compound	Boiling temperature at pressure P
OCCO [1,2-ethanediol]	197.17 ± 0.4 °C
C=CCO [2-propenol]	96.80 ± 0.4 °C
CNC=O [N-methylformamide]	199.10 ± 0.4 °C
CN1CCCC1=O [N-methylpyrrolidone]	202.29 ± 0.4 °C

From the NIST ThermoML archive (doi:10.1016/j.jct.2017.11.009)
